Measurements as given in patent US20230226065A1, “ANTI-INFLAMMATORY COMPOSITIONS, METHODS AND USES THEREOF” (COMVITA LIMITED, priority 2020, published 2023).

Columns and labels:
[1] = system: MMP-9 secretion in differentiated THP-1 cells; experiment: LPS induced MMP-9 secretion in differentiated THP-1 cells (ELISA); assay type: cell-based, human; conditions: 6 μM Azithromycin positive control; LPS 1 μg/mL; P=0.00
Protocol: THP-1 cells (ATCC, ATCTIB202) were grown in RPMI-1640 (Gibco, 11875093)+0.05 mM 2-mercaptoethanol+10% fetal calf serum (FCS)+1% pen-strep. For experiments, the cells were cultured in RPMI-1640 medium with 10% fetal bovine serum (FBS) only.
THP-1 monocyte cells were seeded at a density of 2.5×10^5 cells/ml in 96-well plates and differentiated into macrophages using 10 ng/ml of phorbol 12-myristate 13-acetate (PMA) (Bergin et al) (Sigma, P1585-1MG, Lot #SLBX889, 100% purity) for 72 hours. PMA media was then removed from the differentiated THP-1 cells, the cells were then washed once in RPMI-1640 media and then left to rest for 5 hours.
The differentiated THP-1 cells were stimulated with LPS from E. coli 055:B5 (Sigma, L6529; Lot #037K4068). LPS tested at a concentration of 1 μg/ml (Kong et al). […] After 24 hours, the cell culture media was collected and measured for MMP-9 concentration using MMP-9 ELISA (R&D systems, RDSDY91105 lot #P239459 and DY008 Lot #P239900). […]
In order to better capture the variability, each treatment was done at least in triplicate in each plate (2 plates). Media from the triplicate wells were pooled and analysed in duplicates for the MMP-9 ELISA. […]

[2] = system: COX-2 protein expression in THP-1 cells; experiment: LPS-induced COX-2 protein expression in THP-1 cells (Western blot); assay type: cell-based, human
Protocol: THP-1 cells were seeded in 12-well tissue-culture treated plates at a density of 500,000 cells/well in growth media overnight. […] Cells were washed with cold PBS and lysed in RIPA buffer containing protease inhibitors (Sigma P2714) for 15 minutes on ice. Debris was pelleted by centrifugation at 14,000×g for 15 min and lysate supernatants were frozen at −80° C. for later analysis by western blot.
Western blots for semi-quantitative COX-2 (Abcam ab188183) protein expression were conducted on THP-1 monocyte cells lysed with RIPA buffer containing protease inhibitors. A total of 10 μg protein was loaded onto precast 10% acrylamide gels (BioRad, NZ) then separated by electrophoresis at 120 V at room temperature. […] The membranes were then incubated with the primary antibody that correspond to the protein of interest for 1 h. […] Western blot images were captured with an Amersham™ Imager 600 (GE Healthcare, Chicago, Ill., USA) and densitometry measurement of protein bands was analysed with the accompanying image analysis software.
For analysis of Western blots, densitometry measurements from the proteins of interest were normalised to the densitometry of p-actin for each sample. […] The significance level was set at p≤0.05.

THP-1 cells = experiment: WST-1 cell viability assay, LPS-stimulated THP-1 cells; assay type: cell-based; conditions: 10 μg/mL dexamethasone; LPS co-stimulation 18 hours
Protocol: Human monocytic THP-1 cells were seeded in 96-well tissue-culture treated plates at a density of 50,000 cells/well in growth media (RPMI media supplemented with 10% fetal bovine serum, 2 mM L-glutamine and penicillin-streptomycin) overnight. […] Control wells were treated with hydrogen peroxide (0, 0.5, 1, and 2 mM) for 1 hour prior to addition of WST-1 reagent (Roche, NZ). WST-1 reagent was added to all wells at the end of the 18 hour incubation period, and absorbance readings were subsequently measured 30 min and 1 h and 10 mins after WST-1 addition. Cell viability expressed the percent change from the LPS-stimulated PBS control.

recombinant MMP-9 enzyme [3] = biological target: T1, recombinant MMP-9 enzyme (Homo sapiens, UniProt P14780); experiment: MMP-9 inhibitor screening assay (fluorometric); assay type: biochemical; conditions: NNGH inhibitor control
T1 construct: purchased Abcam ab139449
T1 sequence (P14780 94-707): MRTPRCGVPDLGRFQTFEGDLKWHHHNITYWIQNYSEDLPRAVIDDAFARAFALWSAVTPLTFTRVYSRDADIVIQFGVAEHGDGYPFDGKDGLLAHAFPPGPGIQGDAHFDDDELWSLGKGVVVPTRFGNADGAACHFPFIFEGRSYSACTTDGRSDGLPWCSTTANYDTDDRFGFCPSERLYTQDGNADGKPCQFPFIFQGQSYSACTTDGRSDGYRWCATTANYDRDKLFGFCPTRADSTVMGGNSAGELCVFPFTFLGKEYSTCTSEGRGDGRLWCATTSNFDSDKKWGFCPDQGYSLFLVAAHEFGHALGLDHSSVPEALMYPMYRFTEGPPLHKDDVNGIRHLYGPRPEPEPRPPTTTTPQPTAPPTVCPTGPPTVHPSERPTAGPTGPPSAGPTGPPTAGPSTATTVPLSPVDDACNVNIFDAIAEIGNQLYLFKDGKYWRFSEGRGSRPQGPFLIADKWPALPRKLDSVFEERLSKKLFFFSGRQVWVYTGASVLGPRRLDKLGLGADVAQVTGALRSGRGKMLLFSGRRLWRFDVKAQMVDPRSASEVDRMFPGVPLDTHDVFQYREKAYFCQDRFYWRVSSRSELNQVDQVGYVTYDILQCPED
Protocol: The MMP-9 inhibitor screening assay (fluorometric) kits were purchased from Abcam (Melbourne, Australia). The fluorometric kit contains the recombinant MMP-9 enzyme, MMP inhibitor NNGH (N-isobutyl-N-[4-methoxyphenylsulfonyl]glycyl hydroxamic acid), MMP fluorogenic substrate solubilised in DMSO, the fluorometric assay buffer and 96-well clear microplate.
Inhibitory activity on MMP-9 was assessed using the commercial MMP-9 inhibitor screening assay kit. MMP-9 activity was expressed as a change in fluorescence intensity measured using SpectraMax iD3 multi-mode microplate reader (Molecular Devices, San Jose, USA).
The assay employs a FRET-tagged (fluorescence resonance energy transfer) substrate, which can be hydrolysed by MMP-9 at a specific site (Abcam, 2018). The cleavage of the FRET substrate releases the quenched fluorescent Mca (7-methoxycoumarin-4-yl)-acetyl group (Abcam, 2018). The kit employs a quenched fluorogenic substrate Mca-Pro-Leu-Gly-Leu-Dpa-Ala-Arg-NH2, where the Mca fluorescence is quenched by Dpa until cleavage by MMPs. The amount of fluorescent product yielded by MMP-9 can be detected fluorometrically and it is proportional to the enzyme activity. Fluorescence were measured at ex320 nm-em395 nm to minimise fluorescence interference from 3,6,7-trimethyllumazine at ex330 nm-em470 nm. […]

active MMP-9 = experiment: Gelatin gel zymography, active MMP-9 band; assay type: biochemical; conditions: NNGH 2.6 μM in developing buffer; active MMP-9
Protocol: Novex™ 10% Zymogram Plus (Gelatin) Protein Gels (15 wells) were purchased from Thermo Fisher Scientific Inc. (Auckland, New Zealand). All chemicals required for the zymogram analysis were also purchased from Thermo Fisher, these include Novex™ Sharp Pre-stained Protein Standard, Novex Tris-Glycine SDS sample buffer, Novex Tris-Glycine SDS running buffer, Novex Zymogram renaturing buffer and Novex Zymogram developing buffer. […] Gelatin gel zymography was performed as an independent technique to confirm the inhibition of MMP-9 from 3,6,7-trimethyllumazine. This technique uses a non-reducing SDS-PAGE (sodium dodecyl sulfate polyacrylamide gel electrophoresis) gel embedded with gelatin. Proteins are migrated and separated during electrophoresis. The SDS is removed after electrophoresis and the gel is then incubated with essential cofactors required for enzymatic activity. The embedded gelatin can be digested by MMP-9, resulting in clear bands on a dark blue background after staining with Coomassie blue dyes. The gelatinase activity is represented by band densitometry, which can be assessed with image analysis software. […]
After incubation, the gelatin gel was rinsed with water for three times (5 min each) under gentle agitation. […] MMP-9 activities were analysed using densitometry on ImageJ Version 1.52a. […]

recombinant MMP-9 enzyme [4] = biological target: T1, recombinant MMP-9 enzyme; experiment: MMP-9 inhibitor screening assay (colorimetric); assay type: biochemical; conditions: NNGH at 1.3 μM
Description: The MMP-9 inhibitor screening assay (colorimetric) kits were purchased from Abcam (Melbourne, Australia). The kit contains the recombinant MMP-9 enzyme, MMP inhibitor NNGH, MMP chromogenic substrate, the colorimetric assay buffer and 96-well clear microplate.
The colorimetric kit uses a thiopeptide as a chromogenic substrate (Ac-PLG-[2-mercapto-4-methyl-pentanoyl]-LG-OC2H5), which can be hydrolysed by MMPs to produce a sulfhydryl group. This intermediate product further reacts with DTNB [5,5′-dithiobis(2-nitrobenzoic acid), Ellman's reagent] to form 2-nitro-5-thiobenzoic acid, which can be detected by absorbance at 412 nm. The change in absorbance was measured using the SpectraMax iD3 multi-mode microplate reader (Molecular Devices, San Jose, USA). The assays are performed on a convenient 96-wells microplate with a final reaction volume of 100 μL. Prior to the assay, all testing samples and inhibitor controls were incubated with MMP-9 for 60 min at 37° C. […] The absorbance was measured at 1 min intervals during the first 20 min, then 10 min intervals till the end of assay.
Recombinant MMP-9 and the chromogenic substrate were used as the positive control to represent 100% enzyme activity. […] A range of 3,6,7-trimethyllumazine concentrations were diluted with the colorimetric assay buffer to measure the absorbance of the reaction product.

In the case of `CC[C@H]1OC(=O)[C@H](C)[C@@H](O[C@H]2C[C@@](C)(OC)[C@@H](O)[C@H](C)O2)[C@H](C)[C@@H](O[C@@H]2O[C@H](C)C[C@H](N(C)C)[C@H]2O)[C@](C)(O)C[C@@H](C)CN(C)[C@H](C)[C@@H](O)[C@]1(C)O` [Azithromycin], the “effect on MMP-9 secretion” value [1] is reported as “inhibits MMP-9 secretion”.

`C[C@@H]1C[C@H]2[C@@H]3CCC4=CC(=O)C=C[C@]4(C)[C@@]3(F)[C@@H](O)C[C@]2(C)[C@@]1(O)C(=O)CO` [Dexamethasone, reference compound] was tested, and the “COX-2 Relative expression (mean ± SEM)” value ([2]; 10 μg/mL, LPS 24 hours, LPS positive control 1.26 ± 0.11, n=6) was 0.85 ± 0.07 and the “cell death (WST-1 cell viability)” value (THP-1 cells) was “did not induce cell death”.

For `COc1ccc2c(c1)c(CC(=O)O)c(C)n2C(=O)c1ccc(Cl)cc1` [Indomethacin, reference compound], the “reduction of LPS-induced COX-2 expression” value ([2]; indomethacin 10 μmol/L) was “did not significantly reduce”.

In the case of `COc1ccc(S(=O)(=O)N(CC(=O)NO)CC(C)C)cc1` [NNGH, N-isobutyl-N-[4-methoxyphenylsulfonyl]glycyl hydroxamic acid, reference compound], the “change in fluorescence (MMP-9 activity)” value (recombinant MMP-9 enzyme [3]) is reported as “almost no change in fluorescence”, the “inhibition of gelatinase activity” value (active MMP-9) is reported as “completely inhibited” and the “inhibition of MMP-9 activity” value (recombinant MMP-9 enzyme [4]) is reported as “inhibited most of the MMP-9 activity”.
